{"source": "paper PMC12361428", "about": "(Nature Communications, 2025)", "key": {"[1]": {"biological_target": "A1AR", "conditions": "source not given; cited from earlier work"}, "[2]": {"test_system": "Nluc-tagged hA3AR-BRIL-S97R", "experiment": "NanoBRET washout (irreversible binding) assay vs XAC-630"}, "[3]": {"test_system": "A3AR H95^3.37 alanine mutation", "conditions": "cited from earlier work"}}, "note": "Values joined by “and” are separate entries in the source; they are usually repeats but may differ in a detail not shown here. Identical values can stand only once.", "data": [{"compound": "CCCn1c(=O)c2[nH]c(C3CCCCC3)nc2n(CCCNC(=O)c2ccc(S(=O)(=O)F)cc2)c1=O", "note": "[DU172]", "values": [{"measurement": "pKi", "setting": "[1]", "result": 7.4}]}, {"compound": "O=C(Cc1ccccc1)Nc1nc2ccc(Cl)cc2c2nc(-c3ccco3)nn12", "note": "[MRS1220, 9-Chloro-2-(2-furanyl)-5-((phenylacetyl)amino)-[1,2,4]triazolo[1,5-c]quinazoline]", "values": [{"measurement": "NanoBRET washout assay, normalised signal (Figure S2G), individual replicates", "setting": "[2]; 4 x Wash", "result": "60.7809 and 60.2862 and 64.3691"}, {"measurement": "NanoBRET washout assay, normalised signal (Figure S2G), individual replicates", "setting": "[2]; Control (no wash)", "result": "11.5596 and 12.4414 and 6.2814 and 13.7989"}]}, {"compound": "CNC(=O)[C@H]1O[C@@H](n2cnc3c(NCc4cccc(I)c4)nc(Cl)nc32)[C@H](O)[C@@H]1O", "note": "[Namodenoson]", "values": [{"measurement": "decrease in binding", "setting": "[3]", "result": 30, "unit": "fold"}]}, {"compound": "CC[C@@H]1CN2C(=O)N(C)c3nc(-c4ccccc4)[nH]c3C2=N1", "note": "[PSB11]", "values": [{"measurement": "NanoBRET washout assay, normalised signal (Figure S2G), individual replicates", "setting": "[2]; 4 x Wash", "result": "116.307 and 107.384 and 90.4226 and 99.5492"}, {"measurement": "NanoBRET washout assay, normalised signal (Figure S2G), individual replicates", "setting": "[2]; Control (no wash)", "result": "1.581 and 3.183e-15 and -2.281 and -2.887e-15"}]}]}
